According to patent US20100267928A1, “ACTIVATABLE DIAGNOSTIC AND THERAPEUTIC COMPOUND” (priority 2007, published 2010):
Primed or numbered codes have the meaning given here. Where no end group is shown, it is not given here. The star is where a group is joined. FITC = O=C1OC2(c3ccc(O)cc3Oc3cc(O)ccc32)c2ccc(NC(=S)*)cc21; DOTA = O=C(O)CN1CCN(CC(=O)O)CCN(CC(=O)*)CCN(CC(=O)O)CC1; FITC′ = fluorescent dye, fluorescein isothiocyanate

Legend:
[1] = test system: LN18 and U373 glioma cells; conditions: for apoptosis (binding of Alexa annexin to phosphatidyl serine; morphologic alterations), MMP-2 active / signs of cell death, MMP-2 inactive: 130 μM; for apoptosis (binding of Alexa annexin to phosphatidyl serine; morphologic alterations), MMP-2 active: APMA-containing medium without inhibitor; for signs of cell death, MMP-2 inactive: data not shown
Experimental: Human malignant glioma cells (U373 and LN18) were seated into 25 cm^2 culture flasks which contained 3 ml RPMI medium. This was left as it is for one day so that enough matrix metalloprotenases (MMP-2) could accumulate.
In a second test the same compounds were again dissolved in the media of 12 flasks (130 μM), however now with MMP-2 inhibitor I (Calbiochem).
As a control four small flasks were used wherein both cell lines were incubated in a one day old medium with and also without APMA.
For the confocal laser scanning microscopy an inverted LSM510 laser scanning microscope (Karl Zeiss, Jena, Deutschland) (Objectives: LD Achroplan 40×0.6, Plan Neofluar 20×0.50, 40×0.75) was used [fluorescence excitation at 488 nm (argon-ion laser) and […] (helium-neon laser)]. Superimposed images of FITC- and alexa-stained cells were produced. All measurements were performed on living, non-fixed cells for three times.

[2] = test system: U373 and LN18 glioma cells; assay: Magnetic resonance relaxometry on glioma cell centrifugates; assay type: cell-based, human; conditions: for shortening of the T1 time, inhibitor-free medium: without MMP-2 inhibitor
Experimental: Human U373 and LN18 glioma cells were grown in 25 cm^2 culture flasks (70% confluence). Accutase™ (PAA laboratories, Pasching, Austria) was added to strip off the cells from the bottom of the culture flasks.
In a first try the cells were collected and subsequently distributed on 16 Eppendorf-vials (6×10^6 cells per vial). The cells in the first four vials were used as a control (only RPMI medium with and also without APMA, two cell lines). […] In the following it was washed for three times with PBS and centrifuged with 800 rpm (rounds per minute) for 5 minutes.
In another test adherent U373 and LN18 glioma cells were incubated with the compounds 2A, 4A and […], and were stripped off in the following and collected in Eppendorf vials for the MRT. The MRT analysis of the Eppendorf vials with the cell centrifugates were performed in a 3 Tesla full body MRT apparatus (Trio, Siemens Magnetom Sonata, circular polarised knee coil).
The following spin echo sequence was used to obtain sagittal T1-weighted MRT images.
[…] TE (echo time): 7.4 ms, flip angle 90°, averages: 1, concatenations: 2, measurements: 2, number of slices: 19, distance factor: 30%, slice thickness: 3 mm, field of view read: 180 mm, field of view phase: 100%, base resolution: 256, phase resolution: 100%, voxel size: 0.7×0.7×3.0 mm, scan time: 1:48 min.
By means of multiple spin echo measurements (TR: 20-8000 ms, 50 different TR values) different signal intensities were measured through which the T1 relaxation time could be determined.
TR: 20-8000 ms (50 different TR values), TE: 6.4 ms, flip angle 90°, averages: 1, measurements; 1, number of slices: 1, slice thickness: 1 mm, field of view read: 120 mm, field of view phase: 87.5, base resolution 128, phase resolution; 100% voxel size: 0.9×0.9×1 mm.
For the analysis and calculations a Matlab programme (Math Works, Natick, Mass., USA) was used. The T1 values were determined via a two-parameter fit. All signal curves were examined and rated as being mono-exponential. All tests were performed three times.

[3] = target: T1, MMP-2 (Homo sapiens, UniProt P08253); assay: Cleavage test with MMP-2, cleavage products examined by HPLC; assay type: biochemical; conditions: for cleavage of the compound by MMP-2 (HPLC): already active MMP-2 or proform of MMP-2 activated by APMA, 2 hours in HEPES buffer; for cleavage of the compound by MMP-2 in presence of the inhibitor (HPLC): with MMP-2 inhibitor I
T1 construct: purchased Calbiochem
T1 sequence (P08253 110-660): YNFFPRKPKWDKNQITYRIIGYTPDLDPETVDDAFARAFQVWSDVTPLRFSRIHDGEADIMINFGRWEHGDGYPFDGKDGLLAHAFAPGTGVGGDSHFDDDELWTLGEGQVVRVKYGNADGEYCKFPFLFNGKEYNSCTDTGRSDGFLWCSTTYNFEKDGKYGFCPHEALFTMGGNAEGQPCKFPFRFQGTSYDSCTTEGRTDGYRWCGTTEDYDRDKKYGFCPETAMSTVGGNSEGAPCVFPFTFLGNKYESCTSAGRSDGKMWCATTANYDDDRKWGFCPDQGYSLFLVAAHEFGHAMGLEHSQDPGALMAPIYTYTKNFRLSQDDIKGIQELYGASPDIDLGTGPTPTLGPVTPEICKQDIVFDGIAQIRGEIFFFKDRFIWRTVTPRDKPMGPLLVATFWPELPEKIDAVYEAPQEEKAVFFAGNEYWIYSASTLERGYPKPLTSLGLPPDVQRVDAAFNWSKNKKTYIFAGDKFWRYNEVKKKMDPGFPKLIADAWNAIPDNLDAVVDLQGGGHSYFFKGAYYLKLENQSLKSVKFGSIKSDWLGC
Experimental: The incubation in HEPES buffer with active MMP-2 was made for 2 hours.
[…]. For this 1% APMA stock solution (100 mM in DMSO) was added to the solution containing the MMP-2 proenzyme and the compounds (final APMA concentration: 1 mM, with 1% DMSO).
In the following also an incubation of 2 hours was performed. In addition the tests were made with the MMP-2 inhibitor I (Calbiochem). All six compounds were, as a control, also incubated into HEPES buffer without MMP-2 for two hours.

[4] = test system: LN18 glioma cells; assay: FACS analysis of fluorescence-stained cells; assay type: cell-based, human; conditions: for fluorescence after cleavage by MMP-2 in comparison to the components 2 and 2A: depending on the concentration, FIG. 5; for strongly stained cells in FACS after cleavage by active MMP-2: active versus inactive MMP-2 in culture medium
Experimental: (§1) The FACS analysis was performed on a Becton-Dickinson FACSCalibur. [[…] of the cell suspension (1×10^6 cells+[…] FACS buffer (DPBS buffer with 1% paraformaldehyde)]. Approximately 25.000 to 35.000 cells were measured per sample [fluorescence excitation: argon-ion laser (480 nm), fluorescence detection: 540 to 565 nm band-path filter]. The tests were repeated two times.

[5] = test system: LN18 and U373 glioma cells; assay: Confocal laser scanning microscopy (CLSM) and FACS, staining of cell nuclei; assay type: cell-based, human; conditions: 130 μM; for staining of the cell nuclei, MMP-2 inactive: APMA-containing medium, MMP-2 inactive/inhibited; for staining of the cell nuclei, MMP-2 active: APMA-containing medium without inhibitor
Experimental: as §1

Compound | apoptosis (binding of Alexa annexin to phosphatidyl serine; morphologic alterations), MMP-2 active [1] | shortening of the T1 time in comparison to component 2A, inhibitor-free medium ([2]; depending on the concentration) | shortening of the T1 time, inhibitor-free medium [2] | cleavage of the compound by MMP-2 (HPLC) ([3]; listed as 5A) | cleavage of the compound by MMP-2 (HPLC) ([3]; listed as V5a) | cleavage of the compound by MMP-2 in presence of the inhibitor (HPLC) [3] | fluorescence after cleavage by MMP-2 in comparison to the components 2 and 2A [4] | staining of the cell nuclei, MMP-2 inactive [5] | damage of the cell vitality by additive in the medium ([1]; additive alone in RPMI medium, LN18 and U373 glioma cells) | signs of cell death, MMP-2 inactive [1] | cleavage of the compound by MMP-2 (HPLC) [3] | strongly stained cells in FACS after cleavage by active MMP-2 ([4]; LN18 glioma cells) | displacement of the peak of the FACS histogram to the right, V4 versus V2 ([4]; LN18 glioma cells, after cleavage by active MMP-2) | staining of the cell nuclei, MMP-2 active [5] | shortening of the T1 time in comparison to the native control, inhibitor-containing medium ([2]; 26 and 130 μM, with MMP-2 inhibitor) | signal intensity at TR: 400 ms, active MMP-2 versus inactive MMP-2 ([2]; LN18 glioma cell centrifugates, 26 and 130 μm, washed and centrifuged three times) | cleavage of the compound by MMP-2 (HPLC) ([3]; listed as 5) | staining of the cell nuclei, MMP-2 inactive ([5]; listed as 5)
K-(GdDOTA)-GG-K(FITC)-RRRR-G-PLGLA-G-RRRR-K(FITC)-GG-K(GdDOTA) (K(DOTA)GGK(FITC′)RRRRGPLGLAGRRRRK(FITC′)GGK(DOTA)-NH2; also: DOTA groups complexed with Gd (GdDOTA)) [V5A] | apoptotic | stronger shortening of the T1 time | more distinct shortening of the T1 time | cleaved | split into two new peaks | prevented | stronger fluorescence | few stained cell nuclei |  |  |  |  |  |  |  |  |  | 
CCCCCCCC/C=C\CCCCCCCC(=O)NO [MMP-2 inhibitor I, reference compound] |  |  |  |  |  |  |  |  | did not result in a damage of the cell vitality |  |  |  |  |  |  |  |  | 
K(DOTA)-G-PLGLA-GGPKKKRKVRRRR-K(FITC)-GG-K(DOTA) (K(DOTA)GPLGLAGGPKKKRKVRRRRK(FITC)GGK(DOTA)) [V4] | apoptotic |  |  |  |  | prevented | stronger fluorescence | few stained cell nuclei |  | did not show any signs of cell death | cleaved | considerable increase of the strongly stained cells | more pronounced | staining of the cell nuclei can only be observed after the cleavage |  |  |  | 
PKKKRKV-K(FITC)-GG-K(GdDOTA)-PLGVR-K(GdDOTA) (PKKKRKVKGGKPLGVRK; not fully specified) [V2A] |  |  | more distinct shortening of the T1 time |  |  | prevented |  | few stained cell nuclei |  | did not show any signs of cell death | cleaved |  |  |  | minor shortening of the T1 time | considerably higher signal intensity |  | 
PKKKRKV-K(FITC)-GG-K(DOTA)-PLGVR-K(DOTA) (PKKKRKVKGGKPLGVRK) [V2] |  |  |  |  |  | prevented |  | few stained cell nuclei |  | did not show any signs of cell death | cleaved | considerable increase of the strongly stained cells |  |  |  |  |  | 
K(DOTA)-GG-K(FITC)-RRRR-G-PLGLA-G-RRRR-K(FITC)-GG-K(DOTA) (K(DOTA)GGK(FITC)RRRRGPLGLAGRRRRK(FITC)GGK(DOTA)) [V5] | apoptotic |  |  |  |  | prevented | stronger fluorescence | the cells remain unstained |  | did not show any signs of cell death | split into two new peaks |  |  | accumulates in the cell nuclei |  |  | cleaved | few stained cell nuclei
